In US11718622B2, “Heterocyclic adenosine receptor antagonists” (Exelixis, Inc., priority 2020, dated 2023):

How the values were obtained:
[1] = target: Adenosine A2B (ADORA2B) receptor (Homo sapiens (Human), UniProt P29275); experiment: ADORA2B Receptor Binding Assay; settings: radioligand binding, membrane stock
Method: ADORA2B Receptor Binding Assay
100 μL of Adenosine A2B membrane stock was dispensed into individual wells of an assay plate. 1 μL of each compound (test compounds, high control compound, low control compound) was then transferred into individual wells, followed by 100 μL of radio-labeled ligand. Plates were then sealed, and incubated at room temperature for 1 hour. Unifilter-96 GF/C filter plates were pre-soaked with 50 μL of 0.5% BSA per well for at least 30 min at room temperature. When binding assays were completed, reaction mixtures were filtered through GF/C plates using a Perkin Elmer Filtermate Harvester, and then each plate was washed 4× with cold wash buffer. Filter plates were then dried for 1 hour at 50° C. After drying, the bottom of the filter plate wells was sealed using Perkin Elmer Unifilter-96 backing seal tape. 50 μL of Perkin Elmer Microscint 20 cocktail was then added, and the top of the filter plate was then sealed using Perkin Elmer TopSeal-A sealing film. ^3H trapped on the filter was counted using a Perkin Elmer MicroBeta2 Reader. Data analysis was performed using GraphPad Prism 5 software, and the “Inhibition[% Control]” was calculated using the following equation: % Inh=(1−Background subtracted Assay value/Background subtracted HC value)*100.

[2] = target: Adenosine A2a (ADORA2A) receptor (Homo sapiens (Human), UniProt P29274); experiment: ADORA2A Receptor Binding Assay; settings: radioligand binding, membrane stock
Sequence of Adenosine A2a (ADORA2A) receptor (P29274 whole entry): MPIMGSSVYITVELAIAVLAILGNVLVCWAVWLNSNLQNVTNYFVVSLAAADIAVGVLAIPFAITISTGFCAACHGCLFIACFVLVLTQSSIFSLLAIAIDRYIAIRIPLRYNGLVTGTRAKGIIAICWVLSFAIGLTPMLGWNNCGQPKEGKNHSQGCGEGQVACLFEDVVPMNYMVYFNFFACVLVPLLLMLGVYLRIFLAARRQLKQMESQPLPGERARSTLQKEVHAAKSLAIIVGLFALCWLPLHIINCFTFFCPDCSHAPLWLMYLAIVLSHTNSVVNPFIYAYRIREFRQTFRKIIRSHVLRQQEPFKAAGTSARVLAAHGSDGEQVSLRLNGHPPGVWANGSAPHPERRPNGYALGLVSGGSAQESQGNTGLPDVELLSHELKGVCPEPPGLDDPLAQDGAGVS
Method: ADORA1A and ADORA2A Receptor Binding Assay
2 μL of each compound (test compounds, high control compound, low control compound) was transferred into individual wells of an assay plate. Also to each individual well, 98 μL of Adenosine A1a membrane stock (for ADORA1A Receptor Binding Assay) or Adenosine A2a membrane stock (for ADORA2A Receptor Binding Assay) was dispensed, followed by 100 μL of radio-labeled ligand. Plates were then sealed, and incubated at room temperature for 1 hour (for ADORA1A Receptor Binding Assay) or 2 hours (for ADORA2A Receptor Binding Assay). Unifilter-96 GF/C filter plates were pre-soaked with 50 μL of 0.3% PEI per well for at least 30 min at room temperature. When binding assays were completed, reaction mixtures were filtered through GF/C plates using a Perkin Elmer Filtermate Harvester, and then each plate was washed 4× with cold wash buffer. Filter plates were then dried for 1 hour at 50° C. After drying, the bottom of the filter plate wells was sealed using Perkin Elmer Unifilter-96 backing seal tape. 50 μL of Perkin Elmer Microscint 20 cocktail was then added, and the top of the filter plate was then sealed using Perkin Elmer TopSeal-A sealing film. ^3H trapped on the filter was counted using a Perkin Elmer MicroBeta2 Reader. Data analysis was performed using GraphPad Prism 5 software, and the “Inhibition [% Control]” was calculated using the following equation: % Inh=(1−Background subtracted Assay value/Background subtracted HC value)*100.

Sequence of Adenosine A2B (ADORA2B) receptor (P29275 whole entry): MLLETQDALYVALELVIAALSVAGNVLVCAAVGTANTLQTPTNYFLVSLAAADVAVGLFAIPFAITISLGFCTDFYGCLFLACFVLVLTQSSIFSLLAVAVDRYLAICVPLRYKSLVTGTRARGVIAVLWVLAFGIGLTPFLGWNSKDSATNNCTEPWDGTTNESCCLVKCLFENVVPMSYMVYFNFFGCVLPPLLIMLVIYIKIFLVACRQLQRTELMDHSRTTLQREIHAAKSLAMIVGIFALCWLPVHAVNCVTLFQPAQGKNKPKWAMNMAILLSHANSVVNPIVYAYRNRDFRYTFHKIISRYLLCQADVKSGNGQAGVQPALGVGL

SMILES | IC50 [1] [nM] | IC50 [2] [nM]
CC(=O)Nc1cc2nc(CF)nn2c(-c2ccco2)n1 [Compound 139, N-[2-(fluoromethyl)-5-(furan-2-yl)-[1,2,4]triazolo[1,5-c]pyrimidin-7-yl]acetamide] | 10 to 100 | < 10
Nc1nc(-c2ccccc2)n2nc(C(F)(F)F)nc2c1Cl [Compound 87, 8-chloro-5-phenyl-2-(trifluoromethyl)-[1,2,4]triazolo[1,5-c]pyrimidin-7-amine] | 10 to 100 | < 10
Cc1nc2cc(NC(=O)NCCN3CCCC3)nc(-c3ccco3)n2n1 [Compound 157, 1-[5-(furan-2-yl)-2-methyl-[1,2,4]triazolo[1,5-c]pyrimidin-7-yl]-3-(2-pyrrolidin-1-ylethyl)urea] | 10 to 100 | < 10
Cc1ccc(-c2nc(NC(=O)C3CC3)cc3nc(C4CCOCC4)nn23)o1 [Compound 54, N-[5-(5-methylfuran-2-yl)-2-(oxan-4-yl)-[1,2,4]triazolo[1,5-c]pyrimidin-7-yl]cyclopropanecarboxamide] | 100 to 1000 | < 10
Cc1nc2cc(NC(=O)C3CC3)nc(-c3ccc(C)o3)n2n1 [Compound 2, N-(2-methyl-5-(5-methylfuran-2-yl)-[1,2,4]triazolo[1,5-c]pyrimidin-7-yl)cyclopropanecarboxamide] | < 10 | < 10
Cc1cccc(-c2nc(N)c(Cl)c3nc(C)nn23)n1 [Compound 76, 8-chloro-2-methyl-5-(6-methylpyridin-2-yl)-[1,2,4]triazolo[1,5-c]pyrimidin-7-amine] | > 1000 | 10 to 100
CC(=O)c1cccc(-c2nc(N)c(Cl)c3nc(C)nn23)c1 [Compound 105, 1-[3-(7-amino-8-chloro-2-methyl-[1,2,4]triazolo[1,5-c]pyrimidin-5-yl)phenyl]ethanone] | 100 to 1000 | 10 to 100
Cc1cc2c(nc(-c3ccco3)n3nc(C(C)C)nc23)[nH]1 [Compound 81, 7-(furan-2-yl)-11-methyl-4-propan-2-yl-3,5,6,8,10-pentazatricyclo[7.3.0.0^2,6]dodeca-1(9),2,4,7,11-pentaene] | 10 to 100 | < 10
CC(=O)Nc1cc2nc(C)nn2c(-c2ccc(F)c(F)c2)n1 [Compound 129, N-[5-(3,4-difluorophenyl)-2-methyl-[1,2,4]triazolo[1,5-c]pyrimidin-7-yl]acetamide] | > 1000 | 10 to 100
Cc1nc2c(Cl)c(N(C)C)nc(-c3ccc(C)o3)n2n1 [Compound 24, 8-chloro-N,N,2-trimethyl-5-(5-methylfuran-2-yl)-[1,2,4]triazolo[1,5-c]pyrimidin-7-amine] | > 1000 | > 1000
O=C(Nc1cc2nc(CF)nn2c(-c2ccco2)n1)C1CC1 [Compound 149, N-[2-(fluoromethyl)-5-(furan-2-yl)-[1,2,4]triazolo[1,5-c]pyrimidin-7-yl]cyclopropanecarboxamide] | 10 to 100 | < 10
Cc1nc2c(-c3ccc(C)o3)nc(NC(=O)C3CC3)cn2n1 [Compound 169, N-[2-methyl-8-(5-methlfuran-2-yl)-[1,2,4]triazolo[1,5-a]pyrazin-6-yl]cyclopropanecarboxamide] | < 10 | < 10
Cc1nc2cc(NC(=O)C3CC3)nc(-c3ccc(S(C)(=O)=O)cc3)n2n1 [Compound 99, A-[2-methyl-5-(4-methylsulfonylphenyl)-[1,2,4]triazolo[1,5-c]pyrimidin-7-yl]cyclopropanecarboxamide] | > 1000 | > 1000
Cc1cn2c(Cl)c(N)nc(-c3ccccc3C)c2n1 [Compound 216, 5-chloro-2-methyl-8-(2-methylphenyl)imidazo[1,2-a]pyrazin-6-amine] | > 1000 | > 1000
CC(=O)Nc1cc2nc(C)nn2c(-c2ccc(C)o2)n1 [Compound 25, N-[2-methyl-5-(5-methylfuran-2-yl)-[1,2,4]triazolo[1,5-c]pyrimidin-7-yl]acetamide] | < 10 | < 10
Cc1nc2c(C)c(N)nc(-c3ccc(C)o3)n2n1 [Compound 22, 2,8-dimethyl-5-(5-methylfuran-2-yl)-[1,2,4]triazolo[1,5-c]pyrimidin-7-amine] | 10 to 100 | < 10
Cc1nc2c3nc(C(F)(F)F)[nH]c3nc(-c3ccco3)n2n1 [Compound 165, 5-(furan-2-yl)-8-methyl-2-(trifluoromethyl)-3H-[1,2,4]triazolo[5,1-f]purine] | > 1000 | > 1000
Cc1nc2c(Cl)c(N)nc(-c3ccccc3Cl)n2n1 [Compound 84, 8-chloro-5-(2-chlorophenyl)-2-methyl-[1,2,4]triazolo[1,5-c]pyrimidin-7-amine] | > 1000 | > 1000
Cc1nc2cc(N)nc(-c3ccc(S(C)(=O)=O)cc3)n2n1 [Compound 106, 2-methyl-5-(4-methylsulfonylphenyl)-[1,2,4]triazolo[1,5-c]pyrimidin-7-amine] | > 1000 | > 1000
Cc1nc2cc(NC(=O)C3CC3)nc(-c3ccc(S(N)(=O)=O)cc3)n2n1 [Compound 114, N-[2-methyl-5-(4-sulfamoylphenyl)-[1,2,4]triazolo[1,5-c]pyrimidin-7-yl]cyclopropanecarboxamide] | > 1000 | > 1000
Cc1nc2c(Cl)c(NC(=O)C3CC3)nc(-c3ccc(C)o3)n2n1 [Compound 15, N-[8-chloro-2-methyl-5-(5-methylfuran-2-yl)-[1,2,4]triazolo[1,5-c]pyrimidin-7-yl]cyclopropanecarboxamide] | 100 to 1000 | < 10
Cc1nc2c3cc[nH]c3nc(-c3ccc(C)o3)n2n1 [Compound 35, 4-methyl-7-(5-methylfuran-2-yl)-3,5,6,8,10-pentazatricyclo[7.3.0.0^2,6]dodeca-1(9),2,4,7,11-pentaene] | < 10 | < 10
CC(=O)Nc1cn2nc(C)nc2c(-c2ccc(C)o2)n1 [Compound 174, N-[2-methyl-8-(5-methylfuran-2-yl)-[1,2,4]triazolo[1,5-a]pyrazin-6-yl]acetamide] | < 10 | < 10
CC(=O)Nc1cc2nc(C(F)(F)F)nn2c(-c2ccco2)n1 [Compound 59, N-[5-(furan-2-yl)-2-(trifluoromethyl)-[1,2,4]triazolo[1,5-c]pyrimidin-7-yl]acetamide] | 10 to 100 | < 10
Nc1nc(-c2ccccc2)n2nc(C(F)F)nc2c1Cl [Compound 160, 8-chloro-2-(difluoromethyl)-5-phenyl-[1,2,4]triazolo[1,5-c]pyrimidin-7-amine] | 10 to 100 | < 10
CCCNC(=O)Nc1cc2nc(C)nn2c(-c2ccco2)n1 [Compound 154, 1-[5-(furan-2-yl)-2-methyl-[1,2,4]triazolo[1,5-c]pyrimidin-7-yl]-3-propylurea] | 10 to 100 | 10 to 100
Cc1nc2c(C)c(NC(=O)C3CC3)nc(-c3ccc(C)o3)n2n1 [Compound 19, N-[2,8-dimethyl-5-(5-methylfuran-2-yl)-[1,2,4]triazolo[1,5-c]pyrimidin-7-yl]cyclopropanecarboxamide] | 100 to 1000 | 10 to 100
Cc1cccc(-c2nc(N)c(Cl)n3nc(C)nc23)c1 [Compound 183, 5-chloro-2-methyl-8-(3-methylphenyl)-[1,2,4]triazolo[1,5-a]pyrazin-6-amine] | 10 to 100 | < 10
